≈ marks a conversion by molar mass, not a printed value. Entries after “also recorded” stand apart in the source; their conditions may differ. Where two headings read alike, the source gives them in different places.
Key:
Aspergillus fumigatus [1] = test: MEC assay (Example 3)
[2] = system: Cryptococcus neoformans (H99); test: Broth microdilution MIC (Example 1); format: cell-based; settings: for MIC: Cryptococcus neoformans, read-out: MIC against Cryptococcus neoformans (H99)
Procedure: (§1) MICs/minimum effective concentrations (MECs) were determined for each of the novel analogs against the three major human fungal pathogens, A. fumigatus, C. neoformans, and C. albicans. […] Thus, analogs of FK506 and FK520 can tolerate up to 100-fold reduction in antifungal activity and still be considered for in vivo testing. For C. neoformans, MICs were the most uniform and ranged from 0.2 to 2 μg/mL, which is between 4- and 40-fold reduced for antifungal activity.
(§2) In vitro antifungal activities of FK506, FK520, and analogs were assessed in RPMI 1640 (Sigma-Aldrich) for all strains tested. MICs/minimum effective concentrations (MECs) for each drug were measured using modified Clinical and Laboratory Standards Institute (CLSI) M38-A2 and M27-A3 standard in vitro antifungal susceptibility protocols. Broth microdilution assays for MIC/MEC assessment were performed as described previously (see, Juvvadi P R, et al., 2019, Nat Commun 10:4275). All antifungal assays with C. neoformans were performed at 37° C. Antifungal susceptibility testing for C. albicans was performed in the presence of a uniform 1 μg/mL concentration of fluconazole to sensitize the organism to calcineurin inhibition.

[3] = system: Candida albicans (SC5314); test: Broth microdilution MIC (Example 1); format: cell-based; settings: in the presence of 1 μg/mL fluconazole; for MIC: Candida albicans, SC5314, read-out: MIC against Candida albicans (SC5314)
Procedure: as §1, §2

[4] = system: IL-2 expression in primary murine CD4+ T cells; test: In vitro immunosuppressive activity, IL-2 expression (Example 1); format: cell-based, mouse; settings: for IC50: Mus musculus, CD4+ T, 72 h, PMA and ionomycin stimulation, read-out: IL-2 50% inhibitory concentration (IC50)
Procedure: The potent immunosuppressive activity of FK506 and FK520 is what precludes these highly antifungal compounds from being utilized clinically to treat invasive fungal infections. Therefore, it is essential to understand the level of immunosuppressive activity for each of these analogs to determine if these C-22 modifications improve the fungal selectivity. Utilizing a primary murine T-cell model, IL-2 expression was assessed following growth in the presence of calcineurin inhibitors (FIG. 6A). Naive, primary CD4^+ T cells were collected from mice and grown for 72 h in the presence of FK506, FK520, or an analog. Following stimulation with phorbol 12-myristate 13-acetate (PMA) and ionomycin, the proportion of cells producing IL-2, a key calcineurin-dependent cytokine, was measured with flow cytometry. All compounds generated a dose-dependent reduction in IL-2 production.
Spleen and lymph nodes were collected from C57BL/6 mice and homogenized through a 40-μm filter. Pan-CD4^+ T cells were enriched using a MagniSort mouse CD4 T-cell kit (eBioscience) according to the manufacturer's protocol. Thereafter, CD4^+CD25^− CD44^loCD62L^hi naive T cells were sorted by fluorescence-activated cell sorting (FACS). The naive CD4^+ T cells were grown in Iscove's modified Dulbecco's medium (IMDM) supplemented with glutamine, penicillin, streptomycin, gentamicin, 2-mercaptoethanol, and 10% fetal bovine serum (FBS). Cells were then cultured on anti-hamster IgG-coated plates in the presence of hamster anti-CD3 epsilon and anti-CD28 antibodies (BD Biosciences), neutralizing anti-IL-4 antibody (eBioscience), recombinant IL-12 (10 ng/mL), and recombinant IL-2 (50 U/mL) for 72 h. During this period, cells were grown in the presence of 2× serially diluted FK506, FK520, or analog suspended in DMSO for 72 h. During the last 4 h of culture, phorbol 12-myristate 13-acetate (PMA; Sigma), ionomycin (Sigma), and GolgiStop (BD Biosciences) were added to the culture to facilitate detection of intracellular cytokines via flow cytometry. Live cells were stained with fluorescein isothiocyanate (FITC)-conjugated anti-CD4 antibody (eBioscience) and fixable viability dye eFluor 506 (eBioscience) on ice, followed by fixation and permeabilization using the Foxp3 transcription factor staining kit (eBioscience). Intracellular staining was performed at room temperature using phycoerythrin (PE)-conjugated anti-IL-2 antibody (eBioscience), followed by analysis with a BD LSRFortessa X-20 flow cytometer.

Aspergillus fumigatus [5] = test: Broth microdilution MIC/MEC (Example 1); format: cell-based; settings: for minimal effective concentration: Aspergillus fumigatus, strain Af293, read-out: MEC against Aspergillus fumigatus (Af293)
Procedure: as §1
To assess the antifungal activity against other human fungal pathogens, JH-FK-05 was selected to test against a panel of pathogenic molds and drug-resistant A. fumigatus strains (Table 4). JH-FK-05 registered MECs as low as 1 μg/mL for some of these highly recalcitrant species, such as Mucor circinelloides, Rhizopus oryzae, and pan azole-resistant A. fumigatus (strain F14946).
as §2

Candida albicans = test: MIC assay (Example 3); format: cell-based; settings: for MIC: Candida albicans, SC5314, read-out: MIC against Candida albicans (SC5314)
Procedure: (§3) In vitro antifungal activity was assessed for all fungal strains in RPMI 1640 (Sigma-Aldrich R1383). MICs were measured using Clinical and Laboratory Standards Institute (CLSI) M38-A2 and M27-A3 standard in vitro antifungal susceptibility protocols. C. neoformans and A. fumigatus testing was performed at 37° C. MECs for A. fumigatus were recorded after 48 h of growth. C. albicans testing was performed at 30° C. with a uniform concentration of 2 μg/mL of fluconazole to sensitize the cells to calcineurin inhibition.
(§4) C. neoformans clinical isolate H99 and congenic-derived strain KN99α were used (see, Nielsen K, et al., 2003. Infect Immun 71:4831-4841). KN99α-derived frr1Δ deletion mutants with nourseothricin resistance markers as part of the Madhani deletion collection (NIH funding R01AI100272) were used. C. deneoformans strains used include JEC21 and derived C21F2 (CNB1-1) and C21F3 (frr1-3) strains (see, Odom A, et al., 1997. EMBO J 16:2576-2589; Moore T D, Edman J C. 1993. Mol Cell Biol 13:1962-1970; Fox D S, et al., 2001. Mol Microbiol 39:835-849). C. albicans strain SC5314 is the wild-type strain from which mutants YAG171 (rbp1/rbp1) and YAG237 (CNB1-1/CNB1) were derived (see, Cruz M C, et al., 2001. Antimicrob Agents Chemother 45:3162-3170). A. fumigatus strain akuB^Ku80 and a derived FKBP12 mutant fkbp12A were used during antifungal screening (see, Falloon K, et al., 2015. PLoS One 10:e0137869).

Cryptococcus neoformans = test: MIC assay (Example 3); format: cell-based; settings: for antifungal activity at 37° C. versus 30° C.: C. neoformans; for MIC: Cryptococcus neoformans
Procedure: as §3, §4

[6] = MIC80, 30° C. with 2 μg/mL fluconazole
[7] = MIC90, 37° C., read-out: MIC against Cryptococcus neoformans (H99)

Row | SMILES | MEC against Aspergillus fumigatus (akuB^Ku80) (Aspergillus fumigatus [1]; strain akuB^Ku80) | MIC ([2]; 37° C.) | MIC [3] | IL-2 inhibition / immunosuppression [4] | minimal effective concentration (Aspergillus fumigatus [5]) | MIC (Candida albicans; [6]) | antifungal activity at 37° C. versus 30° C. (Cryptococcus neoformans) | MIC (Cryptococcus neoformans; [7]) | MIC (Cryptococcus neoformans; Table 8, read-out: H99 MIC90) | IC50 [4] | further results
1 | C=CCC1C=C(C)CC(C)CC(OC)C2OC(O)(C(=O)C(=O)N3CCCCC3C(=O)OC(C(C)=CC3CCC(O)C(OC)C3)C(C)C(O)CC1=O)C(C)CC2OC (stereo not drawn) [FK506, reference compound] | 0.04 µg/mL | 0.05 µg/mL (≈ 0.0622 µM) | 0.02 µg/mL | highest level of IL-2 inhibition | 0.016 µg/mL | 0.02 µg/mL (≈ 0.0249 µM) | potent antifungal activity against C. neoformans at 37 °C but not at 30 °C | 0.05 µg/mL (≈ 0.0622 µM) | 0.05 µg/mL (≈ 0.0622 µM) | – | –
2 | CC[C@@H]1/C=C(\C)C[C@H](C)C[C@H](OC)[C@H]2O[C@@](O)(C(=O)C(=O)N3CCCC[C@H]3C(=O)O[C@H](/C(C)=C/[C@@H]3CC[C@@H](O)[C@H](OC)C3)[C@H](C)[C@@H](O)CC1=O)[C@H](C)C[C@@H]2OC [FK520, reference compound] | – | – | – | highest level of IL-2 inhibition; also recorded: slightly reduced compared to that of FK506 | – | – | potent antifungal activity against C. neoformans at 37 °C but not at 30 °C | – | – | – | MEC against Aspergillus fumigatus (akuB^Ku80) (Aspergillus fumigatus [1]): 0.16 µg/mL; MIC against Cryptococcus neoformans (H99) ([2]; 37° C.): 0.05 µg/mL (≈ 0.0631 µM); antifungal activity (MIC/MEC range) ([2]; range over C. neoformans, C. albicans and A. fumigatus): 0.016 to 0.05 µg/mL; MIC against Candida albicans (SC5314) [3]: 0.02 µg/mL; MIC against Candida albicans (SC5314) (Candida albicans; [6]): 0.02 µg/mL (≈ 0.0253 µM); MIC against Cryptococcus neoformans (H99) (Cryptococcus neoformans; MIC90, 37° C.): 0.05 µg/mL (≈ 0.0631 µM); H99 MIC90 (Cryptococcus neoformans; Table 8): 0.05 µg/mL
3 | C=CC[C@@H]1/C=C(\C)C[C@H](C)C[C@H](OC)[C@H]2O[C@@](O)(C(=O)C(=O)N3CCCC[C@H]3C(=O)O[C@H](/C(C)=C/[C@@H]3CC[C@@H](O)[C@H](OC)C3)[C@H](C)[C@@H](O)C/C1=N/NC(=O)CC)[C@H](C)C[C@@H]2OC [JH-FK-02] | – | 2 µg/mL (≈ 2.29 µM) | 1.6 µg/mL | – | 2 µg/mL | – | – | – | – | 42.6 nM | fold increase of IL-2 IC50 / reduction of immunosuppression compared to FK506 ([4]; relative to FK506): > 380 fold
4 | CC[C@@H]1/C=C(\C)C[C@H](C)C[C@H](OC)[C@H]2O[C@@](O)(C(=O)C(=O)N3CCCC[C@H]3C(=O)O[C@H](/C(C)=C/[C@@H]3CC[C@@H](O)[C@H](OC)C3)[C@H](C)[C@@H](O)C/C1=N/NC(C)=O)[C@H](C)C[C@@H]2OC [JH-FK-05] | – | 1 µg/mL (≈ 1.18 µM) | 0.8 µg/mL | – | 2 µg/mL | – | – | – | – | 20 nM | fold reduction of antifungal activity compared to FK506 ([2]; C. neoformans): 20 fold; broad-spectrum antifungal activity / MIC ranking ([2]; C. neoformans, C. albicans, A. fumigatus): maintained high levels of broad-spectrum antifungal activity across the three species; MIC/MEC (Aspergillus fumigatus [5]; echinocandin-resistant strain EMFR-S678P): 2 µg/mL (≈ 2.36 µM)
5 | CC[C@@H]1/C=C(\C)C[C@H](C)C[C@H](OC)[C@H]2O[C@@](O)(C(=O)C(=O)N3CCCC[C@H]3C(=O)O[C@H](/C(C)=C/C3CC[C@@H](O)[C@H](OC)C3)[C@H](C)[C@@H](O)C/C1=N/NC(=O)OC)[C@H](C)C[C@@H]2OC (stereo partly drawn) [JH-FK-08] | 1.3 µg/mL | – | – | – | – | 0.4 µg/mL (≈ 0.463 µM) | potent antifungal activity against C. neoformans at 37 °C but not at 30 °C | 0.8 µg/mL (≈ 0.926 µM) | 0.8 µg/mL (≈ 0.926 µM) | – | MIC/MEC (Aspergillus fumigatus [1]; strain akuB^Ku80): 1.25 µg/mL (≈ 1.45 µM); MIC/MEC (Aspergillus fumigatus [1]; strain Δfkbp12 (akuB^Ku80 fkbp12Δ)): >20 µg/mL; MIC/MEC (Candida albicans): >25 µg/mL; MIC/MEC (Cryptococcus neoformans; strain frr1Δ (KN99α frr1Δ::NAT), MIC90, 37° C.): >25 µg/mL

Reference: US20260315446A1, “ANTIFUNGAL COMPOUNDS AND USES THEREOF” (priority 2023, published 2026)
